For this experiment, the system named is MC38 tumors. Nature of the experiment: CD8+ T cell / NK cell depletion in MC38 syngeneic model. In kind it is in vivo, C57BL/6 mice. An excerpt: To further establish whether the inhibitory effects of M029 on tumor progression could be attributable to enhanced antitumor immune responses, we treated MC38 tumors in nude mice. […] To evaluate the importance of CD8^+ T and NK cells in M029‐induced antitumor activity, we induced CD8^+ T cell or NK cell depletion in the MC38 syngeneic model using anti‐CD8 or anti‐NK1.1 antibodies as described in Figure 6c. […] These findings are consistent with the known role of SHP1 in T cells and with our in vitro data that indicate M029 enhances T cell activation with no direct effect on tumor cells. […] These findings align with previous reports that activated CD8^+ T cells recruit NK cells to tumors through releasing cytokines and chemokines like IFN‐γ.^[ [92] ^] The observed changes in immune activity induced by M029, such as increased tumor infiltration of cytotoxic CD8^+ T cells, enhanced T cell cytotoxicity and effector function, as well as improved NK cell infiltration and activation, collectively contribute to the anticancer effects exerted by M029 treatment.
Figure 6 Cytotoxic T‐cell activity is necessary for M029 antitumor activity. […] C57BL/6 mice were injected with anti‐CD8 or anti‐NK1.1 antibodies every 3–4 days for 8 days after tumor inoculation. Mice were orally dosed with M029 or control vehicle every day for 10 days after tumor inoculation at the same time (Control, n = 4; M029, n = 6; M029 + anti‐NK1.1, n = 6; M029 + anti‐CD8, n = 6). […] This difference implied that the CD8^+ T cells were critical to induce the NK cell infiltration in M029‐treated mice, and the depletion of CD8^+ T cells diminished M029's efficacy because of the absence of activated T cells and infiltrated NK cells. Statistical analyses were performed with Graphpad Prism software 10.4.2 through the student t test or the one‐way ANOVA test using Turkey post‐hoc comparison. *p < 0.05, **p < 0.01, ***p < 0.001, and ****p < 0.0001 were considered significant. Figures are plotted as average ± standard error of the mean (SEM).
Figure S6. Representative flow cytometry results of CD8^+ T/NK cell depletion studies. In the control group and the M029-treated group, CD8^+ T cells make up ~7% of immune cells and NK cells make up ~2% of immune cells. For mice treated with anti-NK1.1 antibody, the NK cell population is negligible (<0.1%). For mice treated with anti-CD8^+ antibody, the CD8^+ T cell population dropped to ~0.1%.
For immune cell profiling in the tumor microenvironment, tumor samples were first reduced to single-cell suspensions by compressing the tumors through a 70 µm filter (Falcon, #352350) into cold 1× PBS supplemented with 5 mM EDTA using the plunger of a syringe (HSW, #4010-200V0). Samples were strained through a second filter and then re-suspended in cold blocking buffer made of 5% BSA, 0.5 mM EDTA, and a 1:1000 dilution of CD16/32. Samples were then incubated with following fluorophore-conjugated antibodies. […]

Entries after “also recorded” stand apart in the source; their conditions may differ.

On to `N#Cc1ccsc1NS(=O)(=O)c1ccc(NC(=O)CCl)cc1` [M029, 2-Chloro-N-(4-(N-(3-cyanothiophen-2-yl)sulfamoyl)phenyl)acetamide], for which the “M029-induced NK cell tumor infiltration after CD8+ T cell depletion” value (M029 + anti-CD8) is “abolishment of the increase in NK cell tumor infiltration”. For the same compound, for the setting “flow cytometry, Figure S6”, the “CD8+ T cell population of immune cells” value is listed as ~ 7% and the “NK cell population of immune cells” value is reported as ~ 2%. For the same compound, the “antitumor efficacy in CD8+ T-cell-depleted mice” value (oral M029 + anti-CD8) was “no antitumor efficacy; also recorded: completely abolished”. In addition, for the setting “oral M029 + anti-NK1.1”, the “antitumor effects in NK cell-depleted mice” value is on record as “remained unaffected; also recorded: did not impact”.
